Columns and labels:
[1] = Hydrolysis reaction: pH and turbidity of diluted ZLC solutions before and after aging; assay type: physicochemical; details: for pH after aging / turbidity after aging (NTU): aged in 37° C. oven over 5 hours; for initial pH / initial turbidity (NTU): before aging; for initial turbidity (NTU): nephelometer
Protocol: Hydrolysis reaction: A 185 mg/ml ZLC solution is prepared and diluted several-fold and aged in a 37° C. oven over 5 hours for turbidity studies. […] Turbidity of the solutions is measured using a nephelometer, results being given in nephelometric turbidity units (NTU).
The precipitates formed in the 8×, 16× and 32× diluted solutions are collected by centrifugation and identified as crystalline ZnO by PXRD. From the supernatant, a single crystal is grown and shown by X-ray diffraction to be Lysine Monohydrochloride Dihydrate (LysineHCl·2H2O).
The mechanism of the ZLC hydrolysis reaction can be expressed as [Zn(Lysine)2Cl]^+Cl^−·2H2O+H2O→ZnO+Lysine·HCl·2H2O

[2] = molecular target: Bovine Serum Albumin (BSA) (Bos taurus, UniProt P02769); experiment: Flocculation: interaction of ZLC with BSA solutions (turbidity, pH, observation); assay type: physicochemical; details: for Turbidity (NTU) / observation / pH: ZLC about 15 mg/ml, 5 hours at 37° C.
Protocol: Turbidity and pH of solutions are measured 5 hours after the mixtures were placed in a 37° C. oven, and the results are shown in Table 3.

[3] = sample 1: DI water, 0% BSA, initial pH 6.4
[4] = sample 2: 1% BSA, initial pH 7.2
[5] = sample 3: 1% BSA, pH adjusted to 5.1

Chain of Bovine Serum Albumin (BSA) (P02769 25-607): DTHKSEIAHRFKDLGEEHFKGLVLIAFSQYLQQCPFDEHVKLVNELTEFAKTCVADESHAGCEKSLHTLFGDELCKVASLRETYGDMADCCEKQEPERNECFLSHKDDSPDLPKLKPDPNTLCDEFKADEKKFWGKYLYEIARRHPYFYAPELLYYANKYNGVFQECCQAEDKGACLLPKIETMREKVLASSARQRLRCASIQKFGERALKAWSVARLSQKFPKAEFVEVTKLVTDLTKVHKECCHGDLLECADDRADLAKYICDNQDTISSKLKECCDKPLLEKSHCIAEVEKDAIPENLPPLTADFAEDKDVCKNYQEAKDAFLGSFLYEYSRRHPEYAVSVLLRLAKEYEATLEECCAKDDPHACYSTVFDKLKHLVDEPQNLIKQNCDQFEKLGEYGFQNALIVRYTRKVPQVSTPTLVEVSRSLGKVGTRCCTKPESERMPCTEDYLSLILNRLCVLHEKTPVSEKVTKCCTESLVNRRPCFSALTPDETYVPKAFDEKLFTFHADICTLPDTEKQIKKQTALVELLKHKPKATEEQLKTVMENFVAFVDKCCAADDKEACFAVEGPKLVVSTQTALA

Compound: NCCCCC(N)C(=O)O.NCCCCC(N)C(=O)O.O.O.[Cl-].[Cl-].[Zn+2] (centres unmarked) [ZLC, [Zn(C6H14N2O2)2Cl]^+Cl^−]
- pH after aging ([1]; 5.78 mg/ml ZLC solution): 8
- turbidity after aging (NTU) ([1]; 5.78 mg/ml ZLC solution): >1000 NTU
- initial pH ([1]; 5.78 mg/ml ZLC solution): 8
- initial turbidity (NTU) ([1]; 5.78 mg/ml ZLC solution): 40.1 NTU
- pH after aging ([1]; 11.56 mg/ml ZLC solution): 7.8
- turbidity after aging (NTU) ([1]; 11.56 mg/ml ZLC solution): >1000 NTU
- initial pH ([1]; 11.56 mg/ml ZLC solution): 7.8
- initial turbidity (NTU) ([1]; 11.56 mg/ml ZLC solution): 14.8 NTU
- pH after aging ([1]; 23.125 mg/ml ZLC solution): 7.7
- turbidity after aging (NTU) ([1]; 23.125 mg/ml ZLC solution): 247.4 NTU
- initial pH ([1]; 23.125 mg/ml ZLC solution): 7.7
- initial turbidity (NTU) ([1]; 23.125 mg/ml ZLC solution): 0.7 NTU
- pH after aging ([1]; 46.25 mg/ml ZLC solution): 7.4
- turbidity after aging (NTU) ([1]; 46.25 mg/ml ZLC solution): 2.8 NTU
- initial pH ([1]; 46.25 mg/ml ZLC solution): 7.4
- initial turbidity (NTU) ([1]; 46.25 mg/ml ZLC solution): 1.5 NTU
- pH after aging ([1]; 92.5 mg/ml ZLC solution): 7
- turbidity after aging (NTU) ([1]; 92.5 mg/ml ZLC solution): 2.6 NTU
- initial pH ([1]; 92.5 mg/ml ZLC solution): 7
- initial turbidity (NTU) ([1]; 92.5 mg/ml ZLC solution): 2.8 NTU
- pH after aging ([1]; 185 mg/ml ZLC solution): 6.8
- turbidity after aging (NTU) ([1]; 185 mg/ml ZLC solution): 4.1 NTU
- initial pH ([1]; 185 mg/ml ZLC solution): 6.8
- initial turbidity (NTU) ([1]; 185 mg/ml ZLC solution): 4.7 NTU
- stability of the complex upon dilution with water ([1]; precipitates of 8×, 16× and 32× diluted solutions identified as crystalline ZnO by PXRD): disassociates upon dilution
- protein flocculation ([2]; BSA as protein): ability to flocculate proteins
- Turbidity (NTU) [2, 3]: 357 NTU
- observation [2, 3]: slightly cloudy
- pH [2, 3]: 8
- Turbidity (NTU) [2, 4]: >1000 NTU
- observation [2, 4]: very cloudy
- pH [2, 4]: 8.2
- Turbidity (NTU) [2, 5]: >1000 NTU
- observation [2, 5]: very cloudy
- pH [2, 5]: 8

— patent publication US9757316B2, “Zinc-lysine complex” (Colgate-Palmolive Company, priority 2012, dated 2017)
